{
  "source": "patent US10000791B2",
  "about": "“Measurement method for human pancreatic lipase activity” (ASAHI KASEI PHARMA CORPORATION, priority 2013, dated 2018)",
  "key": {"human pancreatic lipase [1]": {"test_system": "human pancreatic lipase", "assay": "pH dependence of human pancreatic lipase activity in the presence of bile acids (diglyceride substrate, UV method)", "assay_type": "biochemical", "experimental": "After weighing 1,2-dioleoyl glycerol (DODG) (manufactured by Nippon Fine Chemical Co., Ltd.) to attain a concentration of 9.32 mmol/L when dissolved, 1% polyoxyethylene (10) nonyl phenyl ether (NPE) (manufactured by Wako Pure Chemical Industries Ltd.) containing 1.66 mmol/L of MES (manufactured by Dojindo Laboratories) was added thereto to be dissolved therein by stirring at 37° C. for 2 hours, and the resultant was allowed to stand still in ice for 2 hours or more. The thus obtained solution was used as a substrate original liquid.\nThe above-described diglyceride original liquid was used for preparing a “substrate stock solution” having the following composition:\nA “first reaction solution (R-1)” having the following composition was prepared:\nA “second reaction solution (R-2)” having the following composition was prepared:\nA “second reaction solution (R-2) for sample blank” having the following composition was prepared:\nA mixture of the substrate stock solution and the R-1 in a proportion of 1:2 was used as a first reagent. The R-2 was directly used as a second reagent. As a sample, pooled serum or a control sample (a control containing a pancreatic lipase) was used. A proportion in amount among the sample, the first reagent and the second reagent was set as sample:first reagent:second reagent of 0.01 ml:0.18 ml:0.06 ml. The sample was added to the first reagent, the resultant mixture was heated at 37° C. for 5 minutes, the second reagent was added thereto, and a change rate of an absorbance at 340 nm based on reduced NADP was obtained at 37° C. from 3 minutes after the addition of the second reagent to 4 minutes after the addition, and then, the lipase activity was calculated by using a molecular extinction coefficient of 6300 L/mol·cm of the reduced NADP. Besides, as a sample blank, saline was used instead of a sample, an absorbance was measured by using the reagent for sample blank obtained by removing MGLPII from the second reagent, and a difference between the thus measured two values was defined as an enzyme activity value. For the measurement, Hitachi automatic analyzer Model H7170 or H7080 was used.\nAs a conjugated bile acid to be added to the R-1, sodium taurodeoxycholate (NaTDCA), sodium glycodeoxycholate (NaGDCA), sodium glycochenodeoxycholate (NaGCDCA), sodium taurochenodeoxycholate (NaTCDCA), sodium glycocholate (NaGCA), sodium taurocholate (NaTCA) and sodium tauroursodeoxycholate (NaTUDCA) all in a concentration of 40 mmol/L were selected, the R-1 was adjusted, by using BES (manufactured by Dojindo Laboratories) respectively to pH 6.8, 7.0, 7.2, 7.4, 7.8, and 8.0, and the human pancreatic lipase activity was measured by using these. The pH of the R-2 was adjusted to be equal to that of the R-1.\nIt is noted that the concentration of each non-conjugated bile acid was set to be 24 mmol/L in the R-1. Besides, BES was used for adjusting pH to 7.2, 7.6, 7.8 and 8.0, and Bicine was used for adjusting pH to 8.2 and 8.5.\nSimilarly to Example 1, a mixture of the substrate stock solution and the R-1 in a proportion of 1:2 was used as a first reagent. Except for this, the measurement was performed in the same manner as in Example 1.\nBesides, NaTCA was also combined with a conjugated bile acid, NaTDCA, to examine the pH for giving a maximum value of the human pancreatic lipase activity (the apparent optimum pH). It is noted that a BES buffer was used for adjusting pH to 6.9, 7.2 and 7.7, and a Bicine buffer was used for adjusting pH to 7.95 and 8.2. In each of the combinations of NaGCA/NaDCA, NaTCA/NaDCA, NaTUDCA/NaDCA and NaTCA/NaTDCA, the concentration of each bile acid was set to 20 mmol/L in the R-1. With respect to the combination of NaTCA and NaTDCA, a concentration of 40 mmol/L of NaTDCA was used as a control.\nThe compositions of the reagents and the measurement operation were the same as those of Example 2."}, "human pancreatic lipase [2]": {"test_system": "human pancreatic lipase", "assay": "pH dependence of human pancreatic lipase activity in the presence of bile acids (diglyceride substrate, UV method)", "assay_type": "biochemical", "settings": "pH 7.2"}},
  "data": [
    {"molecule": "C[C@H](CCC(=O)NCCS(=O)(=O)[O-])[C@H]1CC[C@H]2[C@@H]3CC[C@@H]4C[C@H](O)CC[C@]4(C)[C@H]3C[C@H](O)[C@]12C.[Na+]", "note": "[NaTDCA, sodium taurodeoxycholate]", "values": [
      {"measurement": "optimum pH", "setting": "human pancreatic lipase [1]; NaTDCA 40 mmol/L control of Example 2", "value": "about 7.1"},
      {"measurement": "pH for giving a maximum value of the human pancreatic lipase activity (apparent optimum pH)", "setting": "human pancreatic lipase [1]; pooled serum, conjugated bile acid singly, 40 mmol/L in R-1, BES pH 6.8-8.0", "value": "about 7"},
      {"measurement": "proportion of the bile acid to the substrate for attaining the maximum lipase activity", "setting": "human pancreatic lipase [2]; substrate concentration 1.40 mmol/L", "value": "about 17"},
      {"measurement": "proportion of the bile acid to the substrate for attaining the maximum lipase activity", "setting": "human pancreatic lipase [2]; substrate concentration 1.63 mmol/L", "value": "about 15"}
    ]}
  ]
}
